Here are results for one compound from article PMC9706565, “Covalently Conjugated NOD2/TLR7 Agonists Are Potent and Versatile Immune Potentiators” (Journal of Medicinal Chemistry, 2022).

The target of the assay is T1, TLR7 (Homo sapiens, UniProt Q9NYK1).
T1 construct: host or cells: HEK-Blue TLR7 (HEK293-derived)
T1 sequence (Q9NYK1 27-1049): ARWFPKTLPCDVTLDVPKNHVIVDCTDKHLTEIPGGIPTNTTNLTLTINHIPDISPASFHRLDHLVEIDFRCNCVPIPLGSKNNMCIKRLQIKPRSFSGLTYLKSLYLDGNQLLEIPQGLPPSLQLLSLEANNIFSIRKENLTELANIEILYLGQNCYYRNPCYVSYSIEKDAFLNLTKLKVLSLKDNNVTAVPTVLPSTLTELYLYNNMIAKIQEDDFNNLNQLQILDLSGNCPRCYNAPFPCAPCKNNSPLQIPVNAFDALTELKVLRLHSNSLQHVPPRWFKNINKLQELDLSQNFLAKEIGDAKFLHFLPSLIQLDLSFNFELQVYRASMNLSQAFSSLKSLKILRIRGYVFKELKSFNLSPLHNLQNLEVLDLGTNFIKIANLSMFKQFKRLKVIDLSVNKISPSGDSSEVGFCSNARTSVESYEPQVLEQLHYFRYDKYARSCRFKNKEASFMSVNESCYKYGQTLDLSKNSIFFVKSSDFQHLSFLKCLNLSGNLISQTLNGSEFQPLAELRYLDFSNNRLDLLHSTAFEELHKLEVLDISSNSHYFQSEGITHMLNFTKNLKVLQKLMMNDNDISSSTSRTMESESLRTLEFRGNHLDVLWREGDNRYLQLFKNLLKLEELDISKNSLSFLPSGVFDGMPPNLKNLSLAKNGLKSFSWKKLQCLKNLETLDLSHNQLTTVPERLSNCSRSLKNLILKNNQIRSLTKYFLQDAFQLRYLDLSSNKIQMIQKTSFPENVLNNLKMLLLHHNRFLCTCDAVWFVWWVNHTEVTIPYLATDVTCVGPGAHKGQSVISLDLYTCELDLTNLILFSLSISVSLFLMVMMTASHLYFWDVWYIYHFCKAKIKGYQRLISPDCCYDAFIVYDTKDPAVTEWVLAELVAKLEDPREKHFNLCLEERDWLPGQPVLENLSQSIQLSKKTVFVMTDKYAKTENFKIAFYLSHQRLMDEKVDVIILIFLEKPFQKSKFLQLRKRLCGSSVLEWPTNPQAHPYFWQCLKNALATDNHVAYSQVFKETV
The experiment in a line: NF-κB transcriptional activity (SEAP reporter) in HEK-Blue TLR7 cells. Type of assay: cell-based. The text has this:
HEK-Blue NOD1 (Cat. code: hkb-hnod1), NOD2 (Cat. code: hkb-hnod2), and TLR7 (Cat. code: hkb-htlr7) cell lines (Invivogen, San Diego, CA) are derived from HEK293 cells by co-transfection of the hNOD1, hNOD2, or hTLR7 genes, respectively, and a nuclear factor-κB (NF-κB)-inducible secreted embryonic alkaline phosphatase (SEAP) reporter gene. Following activation of the respective receptors, the resulting NF-κB induces the production of SEAP, the levels of which can be quantified colorimetrically. […] All of the subsequent passages were cultured in medium additionally supplemented with 100 μg/mL Zeocin (Invivogen) and 30 μg/mL Blasticidin (Invivogen) for HEK-Blue NOD1 and NOD2 cells, or with 100 μg/mL Zeocin (Invivogen) and 10 μg/mL Blasticidin (Invivogen) for HEK-Blue TLR7 cells.
After 18 h of incubation (37 °C, 5% CO2), SEAP activity was determined spectrophotometrically as absorbance at 630 nm (BioTek Synergy microplate reader; Winooski, VT). EC50 values were calculated using the Prism software (version 9; GraphPad Software, CA).

For the compound `CCCCOc1nc(N)c2nc(O)n(Cc3ccc(C(=O)NCCOCCNC(=O)CC[C@@H](NC(=O)[C@@H](NC(=O)CNC(=O)/C=C/c4ccc(O)c(OC)c4)C(C)C)C(=O)OCC)cc3)c2n1` [Compound 4, Ethyl N5-(2-(2-(4-((6-amino-2-butoxy-8-hydroxy-9H-purin-9-yl)methyl)benzamido)ethoxy)ethyl)-N2-((E)-3-(4-hydroxy-3-methoxyphenyl)acryloyl)glycyl-L-valyl-D-glutaminate], for the setting “HEK-Blue TLR7 cells, 18 h, eight concentrations 1 nM to 10 μM, NA, not active”, the EC50 came to 0.036 µM. In addition, the “fold improved TLR7 activity over 1” value (ratio of EC50 values in HEK-Blue TLR7 cells) was found to be 10 fold.
